Measured values: publication PMC8472562, “Oral Peptide Vaccine against Hookworm Infection: Correlation of Antibody Titers with Protective Efficacy” (Vaccines, 2021)
“Also recorded” adds a separate entry of the source. Bridge positions count the residues as written; N and C are the ends. I, II: the chains in the order shown.

Experiments:
[1] = tested on: Nippostrongylus brasiliensis; format: in vivo, BALB/c mice; conditions: oral 4 × 100 µg; 750 L3 larvae s.c.; 7 days post-infection; one-way ANOVA and Mann Whitney U-test against negative control
p3 epitope [2] = format: in vivo, BALB/c mice; conditions: oral gavage 4 × 100 µg, two-week intervals, n = 8/group; ELISA; compared to PBS group or between groups
mutant APR-1M74 = experiment: Serum anti-APR-1 IgG ELISA after oral immunization; format: in vivo, BALB/c mice; conditions: oral gavage 4 × 100 µg, two-week intervals, n = 8/group
p3 epitope [3] = format: in vivo, BALB/c mice; conditions: oral gavage 4 × 100 µg; ELISA
bovine trypsin [4] = tested on: T1, bovine trypsin; experiment: In vitro stability against proteolysis by bovine trypsin; format: in vitro ADME; conditions: bovine trypsin 1000 U solution, 1 mM CaCl2 in PBS, 37 °C with shaking, analytical HPLC
T1 construct: purchased Sigma-Aldrich
Method: (§1) Enzyme 1000 U solution was prepared from bovine trypsin (10,000 U/mg, Sigma-Aldrich, Castle Hill, NSW, Australia) with 1 mM CaCl2 in 1 mL PBS, as reported previously. After preparation, 100 µL of enzyme solution was added to 400 µL of peptide solution (1.25 mg/mL) in PBS and incubated at 37 °C with shaking. To inhibit enzyme activity, 40 µL of TFA and acetonitrile mixture (1:2) was added to 60 µL aliquots of the mixture at each interval. The solution was analyzed by analytical HPLC with a calibration curve employing the compound’s peak at its characteristic retention time to determine intact compound concentration.

[5] = Particle size distribution by dynamic light scattering and TEM; format: physicochemical; conditions: 0.2 mg/mL in PBS, 25 °C, angle 173°
Method: Particle size distribution was evaluated by preparing a 0.2 mg/mL solution of each pure compound in PBS and measured using dynamic light scattering (DLS; Zetasizer Nano ZP) at 25 °C and an angle of 173°.
Compounds were evaluated by transmission electron microscopy using a JEM-1010 microscope (JEOL LTD, Tokyo, Japan) at 100 kV. The images were analyzed using AnalySIS® software (Megaview III, Munster, Germany).

[6] = Secondary structure by ATR-FTIR; format: physicochemical; conditions: 2 mg/mL in PBS, 25 °C, triplicate spectra, second derivative
Method: The compounds’ secondary structures were evaluated according to the methodology of Yang et al.. Solutions of each compound in PBS (2 mg/mL) were prepared and placed on the diamond-attenuated total reflectance accessory of the ATR-FTIR, and absorbance spectra were collected from 500 and 4000 cm^−1, in triplicate, at 25 °C and 4 cm^−1 resolution. The first and second derivative of the absorbance spectra were generated and analyzed using Originpro 2020 software. The second derivative secondary structure component-peak assignment was also detected and quantified using Originpro 2020 software.

bovine trypsin [7] = biological target: T2, bovine trypsin (Bos taurus, UniProt P00760); experiment: In vitro stability against proteolysis by bovine trypsin; format: in vitro ADME; conditions: bovine trypsin in PBS, 37 °C
T2 construct: purchased Sigma-Aldrich
T2 sequence (P00760 24-246): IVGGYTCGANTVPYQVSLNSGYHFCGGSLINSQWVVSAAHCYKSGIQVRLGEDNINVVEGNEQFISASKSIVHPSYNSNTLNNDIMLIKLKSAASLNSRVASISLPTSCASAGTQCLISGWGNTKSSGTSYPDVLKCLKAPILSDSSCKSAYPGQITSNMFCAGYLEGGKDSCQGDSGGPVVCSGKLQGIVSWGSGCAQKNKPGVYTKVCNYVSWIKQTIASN
Method: as §1

## Ac-LLLLLLLLLLTSLIAGPKAQVEAIQKYIGAELKKLIPNASLIENCTKAELSKKKK-NH2 (N-terminus and C-terminus assumed) [LL10]
[1]
  parasite and egg numbers after challenge infection, in words: highest significant reduction in worm burden; also recorded: significantly reduced
p3 epitope [2]
  serum p3-IgG titers: highest; also recorded: significantly higher
Mutant APR-1M74
  serum anti-APR-1 IgG titers: highest
p3 epitope [3]
  mucosal antibody responses (saliva and fecal extracts, IgA and IgG): detectable
Bovine trypsin [4]; 100 µL enzyme + 400 µL peptide 1.25 mg/mL, 30 min, read-out: degradation after 30 min of incubation with trypsin
  metabolised at 0.5 h, 1 mg/mL: 25%
Bovine trypsin [4]; peptide 1.25 mg/mL, 60 min, read-out: conjugate remained intact after 60 min
  remaining at 1 h, 1 mg/mL: 15%
[5]; DLS
  polydispersity index (PDI): 0.36 ± 0.1
[5]; self-assembled, electron microscopy and DLS, LCP, BL10, LL10 also formed aggregates
  nanoparticle size: 22 nm
[6]
  β-sheet contribution: 6%

## Ac-TSLIAGPKAQVEAIQKYIGAELKKLIPNASLIENCTKAELSKKKK-NH2 [p3-P25]
Bovine trypsin [7]; analytical HPLC
  time to almost complete degradation by trypsin: less than 30 min

## I: Ac-TSLIAGPKAQVEAIQKYIGAELKKLIPNASLIENCTKAELSKKKK-NH2 / II: Ac-LLLLLLLLLL (amide I:23-II:C) [BL10]
Bovine trypsin [7]; one-way ANOVA with Tukey's test
  stability against trypsin degradation, comparison in words: significantly slower than p3-P25
